Columns and labels:
[1] = tested on: homologous recombination deficiency / carboplatin sensitivity genes in A2780 cells; assay: Nanostring PanCancer Pathways mRNA, A2780; assay type: cell-based; details: 50 nM, 16 hours
Protocol: Ovarian Cell lines OvCar3, TOV21G, A2780 and COV318 were plated at 500,000 cells/well in a 6-well plate the day before treatment. The next day the cells were treated with vehicle or 50 nM Compound 1 for 0, 6, or 16 hours after which cells were harvested and total RNA collected using RNeasy mini kit (Qiagen). Changes in mRNA between samples were analyzed with Nanostring™ PanCancer Pathways Panels specifically analyzing genes related to homologous recombination deficiency and carboplatin sensitivity (ie. BRCA1, BRCA2, Rad51, ATM, ATR, MSH2, MSH6). Nanostring signal intensities were first normalized to housekeeping genes across all cell lines, and then normalized to the 0 hour timepoint within a cell line.

AML xenografts = details: previously shown; cited from earlier work
[2] = tested on: MCL1 protein in CAL-120 cells; assay: Western blot of BCL2 family proteins, CAL-120; assay type: cell-based, human; details: 50 nM or 100 nM, 24 hours
Protocol: (§1) Cytotoxic cancer cell lines HCC70 and TOV21G, and cytostatic cancer cell lines T47D and COV318 were seeded in wells of a six-well dish at a density of 1×10^6 cells/well and allowed to adhere overnight. Cells were then treated with 50 nM of Compound 1 for 16 or 24 hours, or with DMSO (0 hours) representing a negative control. Cells were harvested and placed on ice, and resuspended in RIPA lysis buffer supplemented with protease and phosphatase inhibitors. Clarified lysates prepared with 4×LSD running buffer and boiled at 95° C. for 5 minutes. Equivalent amounts of sample (10 μg total protein) were run on a 4-12% Bis-Tris gel and transferred to a PDVF membrane for Western blotting using standard Western blotting protocols. Membranes were blocked with Licor TBS blocking buffer then probed with antibodies for BCL-XL, BCL-2, MCL1, BID, and GAPDH visualized using and Odyssey imager (FIGS. 23A and 23D).
In a similar experiment, TNBC breast cancer cell lines HCC70, MDAMB468, MDAMB453 and CAL-120 were grown as described above and treated with DMSO, 50 nM Compound 1 or 100 nM Compound 1 for 24 hours. Protein samples were prepared as described above for Western blotting using antibodies specific for the indicated proteins in FIG. 29A. […]

[3] = tested on: Rad51, CHEK1 and CHEK2 RNA in THP1 cells; assay: Microarray RNA levels of DNA damage repair genes, THP1; assay type: cell-based; details: THP1 AML cells; 100 nM, 6 hrs
Protocol: THP1 is an AML cell line. THP1 cells (1×10^6/well) were plated in 6-well plates and treated with vehicle (DMSO), 100 nM Compound 1, 25 nM NVP2 (a CDK9 inhibitor), 250 nM JQ1 (a BRD4 inhibitor) or 200 nM Flavopiridol (a pan-CDK inhibitor) for 6 hrs, after which cells were harvested and total RNA (1,000 ng) isolated. RNA levels of the DNA damage repair genes Rad51, CHEK1 and CHEK2 were analyzed by microarray. Experiments were done in triplicates. We performed RMA normalization of the data using the “affy” package from Bioconductor. The command used is shown below and includes background correction, normalization and summarization:
Next, we performed loess normalization using only spike-ins to enable comparison of expression values across multiple samples.

BR5015 xenografts = assay: TNBC patient-derived xenograft BR5015, tumor volume; assay type: in vivo, mouse; details: 40 mg/kg or 30 mg/kg i.v. BIW
Protocol: Patient-derived xenograft (PDX) models from TNBC patients (BR5010, BR5013, BR5015, and BR5023) were established in NOD-SCID mice at Crown Bioscience (San Diego, USA). Cryo vials containing tumor cells were thawed and prepared for injection into mice. Cells were washed in PBS, counted, and resuspended in cold PBS at a concentration of 50,000-100,000 viable cells/100 ul. Cell suspensions were mixed with an equal volume of Cultrex ECM and kept on ice during transport to the vivarium. Cells were prepared for injections by withdrawing ECM-Cell mixture into a chilled slip-tip syringe fitted with a 26G 7/8 (0.5 mm×22 mm) needle. The filled syringes were kept on ice to avoid the solidification of ECM. Each mouse was inoculated subcutaneously in the right flank with 200 uL of the cell suspension. Tumor sizes were measured in two dimensions using a caliper, and the volumes were expressed in mm^3 using the formula: V=0.5 a×b^2, where a and b are the longest and shortest diameters of the tumor, respectively. Compound 1 treatment was started when the average tumor size reached 150-200 mm^3.
Compound 1 was formulated in w/v 20% Captisol (pH 4-6) and administered by i.v. twice weekly (BIW) at a final dose of 40 mg/kg or 30 mg/kg in a 10 ml/kg volume. Tumor volumes were measured twice weekly over the course of the study. […]

[4] = tested on: MCL1 protein in KG1 cells; assay: Western blot, AML cell line KG1; assay type: cell-based; details: 50 nM
Protocol: as §1
We next explored the expression of MCL1, BCL-XL and BCL2 in four different AML cell lines. MV411, OCI-AML3 and KG1 cells were separately grown and prepared as described in Example 2 for Western blotting, using antibodies specific for BCL2 (FIG. 24A), BCL-XL, MCL-1 and tubulin as an internal control (FIG. 24B).

With CN(C)C/C=C/C(=O)Nc1ccc(C(=O)N[C@@]2(C)CCC[C@@H](Nc3ncc(Cl)c(-c4c[nH]c5ccccc45)n3)C2)nc1 [Compound 1, N-((1S,3R)-3-(5-chloro-4-(1H-indol-3-yl)pyrimidin-2-ylamino)-1-methylcyclohexyl)-5-((E)-4-(dimethylamino)but-2-enamido)picolinamide] as the compound, how does the “mRNA of genes related to homologous recombination deficiency and carboplatin sensitivity, all genes except Rad51 (BRCA1, BRCA2, ATM, ATR, MSH2, MSH6)” value [1] read?
The value was “downregulated”.

And the Anti-tumor activity (AML xenografts)?
Its Anti-tumor activity is “anti-tumor activity”.

What about the “MCL1 protein level (Western blot)” value [2] of the same compound?
The value was “downregulated”.

What about the “mRNA expression from genes involved in DNA repair (Rad51, CHEK1, CHEK2)” value [3] of the same compound?
Its value is “Downregulation”.

And the “Tumor growth vs untreated historical samples” value (BR5015 xenografts)?
Its value is “little inhibitory effect on tumor growth”.

And the “MCL1 protein level (Western blot)” value [4]?
The value was “significant reduction in MCL1”.

— patent US20200113902A1, “COMPOSITIONS AND METHODS FOR TREATING CANCERS WITH COVALENT INHIBITORS OF CYCLIN-DEPENDENT KINASE 7 (CDK7)” (Syros Pharmaceuticals, Inc., priority 2017, published 2020)
